Legend:
Type in all cases: biochemical
[1] = target: CDK7/CycH/Mat1 (Homo sapiens, UniProt P50613); test: CDK7 Enzymatic Activity Assay (Lance Kinase Activity Assay, FRET); details: CDK7/CycH/Mat1, 25 μM ATP final; class ranges; read-out: CDK7: IC50 [nM] for CDK7 inhibition
Procedure, shortened: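 TR-FRET (LANCE) kinase assay: CDK7/CycH/Mat1 phosphorylates Ulight-MBP substrate for 1 h at room temperature in pH 7.5 HEPES buffer; detection 1 h with Eu-labelled anti-phospho antibody plus EDTA.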

[2] = target: T1, CDK2/CycA (Homo sapiens, UniProt P24941); test: CDK2 Enzymatic Activity Assay (Lance Kinase Activity Assay, FRET); details: Table 5B, class symbols per IC50 [nM] ranges of b581; read-out: CDK2: Selectivity of CDK7 inhibition over CDK2 inhibition
T1 construct: purchased Proqinase
Method: This protocol describes how the Lance Kinase Activity Assay was performed to determine IC50 values of compounds of general formula (I) against CDK/Cyclin complexes. The principle behind this enzymatic assay is based upon the phosphorylation of the Ulight-Peptide Substrat. It is detected by using a specific EU-labeled anti-phospho peptide antibody.
Binding of an inhibitor to the kinase prevents phosphorylation of the Ulight-MBP Substrat, resulting in a loss of FRET.
CDK2 Enzymatic Activity Assay
The compounds of general formula (I) exemplary summarized in Table 1 were diluted from a 10 mM DMSO stock solution 1:10 in a total volume of 15 μl DMSO. This compound predilution was then serial diluted 1:3 over 8 steps in DMSO and briefly spun down. Each compound solution was now diluted 1:20 in Enzymatic Buffer (HEPES: 50 mM, pH: 7.5; MgCl2: 10 mM; EGTA: 1 mM; DTT: 2 mM; Tween-20: 0.01%), mixed thoroughly and spun down.
For positive controls, 2 μl of DMSO working solution were mixed with 6 μl CDK2/CycA/substrate working solution and 2 μl ATP working solution. Positive and negative controls were calculated from at least 8 different wells. The 384 well plates were mixed in a Teleshaker plate mixer (Beckman Coulter, Brea, Calif., USA) at 2000 rpm for 40 sec, and incubated for 1 h at room temperature before addition of 10 μl LANCE Detection Buffer (EDTA: […]; Eu-Anti-P-MBP: 4 nM) per well. Plates were mixed in a Teleshaker plate mixer (Beckman Coulter, Brea, Calif., USA) at 2000 rpm for 40 sec, followed by incubation with Detection Buffer for 1 h, and reading. […] IC50 values were determined from the sigmoidal dose response curves with the software Quattro Workflow (Quattro GmbH, Munich, Germany).

[3] = target: CDK9/Cyclin T1 (Homo sapiens, UniProt P50750); test: CDK9 Enzymatic Activity Assay (Lance Kinase Activity Assay, FRET); details: Table 5B, class symbols per IC50 [nM] ranges of b581; read-out: CDK9: Selectivity of CDK7 inhibition over CDK9 inhibition
Sequence of CDK9/Cyclin T1 (P50750 whole entry): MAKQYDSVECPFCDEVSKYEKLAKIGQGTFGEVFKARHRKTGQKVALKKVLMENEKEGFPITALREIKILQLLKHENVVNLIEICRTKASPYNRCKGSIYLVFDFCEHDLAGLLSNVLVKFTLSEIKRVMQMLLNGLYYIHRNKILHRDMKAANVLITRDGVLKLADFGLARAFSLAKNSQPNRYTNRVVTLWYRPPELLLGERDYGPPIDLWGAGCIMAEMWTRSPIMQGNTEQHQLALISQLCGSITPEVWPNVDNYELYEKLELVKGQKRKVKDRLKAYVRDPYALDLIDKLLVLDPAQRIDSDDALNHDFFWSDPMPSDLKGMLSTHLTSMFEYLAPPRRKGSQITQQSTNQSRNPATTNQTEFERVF
Sequence of CDK9/Cyclin T1 (O60563 whole entry partner): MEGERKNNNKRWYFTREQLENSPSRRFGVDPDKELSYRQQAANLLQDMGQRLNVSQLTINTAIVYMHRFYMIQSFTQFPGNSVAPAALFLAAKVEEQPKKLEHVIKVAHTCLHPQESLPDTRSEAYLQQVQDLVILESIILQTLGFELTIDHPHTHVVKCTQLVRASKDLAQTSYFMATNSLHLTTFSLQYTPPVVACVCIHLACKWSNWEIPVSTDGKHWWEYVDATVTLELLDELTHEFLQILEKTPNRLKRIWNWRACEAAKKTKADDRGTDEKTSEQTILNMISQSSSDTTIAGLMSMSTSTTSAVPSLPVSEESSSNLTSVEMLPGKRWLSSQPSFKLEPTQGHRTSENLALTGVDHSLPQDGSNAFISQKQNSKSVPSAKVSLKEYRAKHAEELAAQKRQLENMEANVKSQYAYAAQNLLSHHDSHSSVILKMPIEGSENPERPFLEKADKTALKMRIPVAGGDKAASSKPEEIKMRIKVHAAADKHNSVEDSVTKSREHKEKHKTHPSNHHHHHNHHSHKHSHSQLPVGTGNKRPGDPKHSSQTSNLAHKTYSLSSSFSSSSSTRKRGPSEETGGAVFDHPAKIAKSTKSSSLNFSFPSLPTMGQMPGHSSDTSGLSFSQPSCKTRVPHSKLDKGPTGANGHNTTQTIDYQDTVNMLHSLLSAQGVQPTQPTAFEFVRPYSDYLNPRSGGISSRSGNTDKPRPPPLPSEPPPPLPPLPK
Procedure, shortened: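 CDK9/cyclin T1 phosphorylation of a ULight-MBP peptide was run for 1 h at room temperature in pH 7.5 HEPES buffer with MgCl2, EGTA, DTT and Tween-20. It was followed by 1 h with Eu-anti-phospho-MBP antibody (4 nM) in EDTA detection buffer. TR-FRET loss gave IC50 from 8-point, 1:3 sigmoidal dose-response curves.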

Sequence of CDK7/CycH/Mat1 (P50613 whole entry): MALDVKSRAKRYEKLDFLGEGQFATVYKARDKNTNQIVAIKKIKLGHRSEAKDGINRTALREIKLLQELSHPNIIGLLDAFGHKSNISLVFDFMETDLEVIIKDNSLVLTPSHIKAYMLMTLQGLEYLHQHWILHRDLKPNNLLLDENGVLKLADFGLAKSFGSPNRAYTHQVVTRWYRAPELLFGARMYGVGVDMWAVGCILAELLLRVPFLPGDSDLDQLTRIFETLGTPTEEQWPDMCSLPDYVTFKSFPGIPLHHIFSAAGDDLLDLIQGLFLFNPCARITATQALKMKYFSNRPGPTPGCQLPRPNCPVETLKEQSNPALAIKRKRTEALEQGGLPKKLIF

Row | Compound | IC50 [1] | IC50 [2] | IC50 [3]
1 | COc1ccccc1CNc1nc(OC2CCN(C)CC2)nc2c(C(C)C)cnn12 [(VII-71), 8-isopropyl-N-(2-methoxybenzyl)-2-((1-methylpiperidin-4-yl)oxy)pyrazolo[1,5-a][1,3,5]triazin-4-amine] | < 5 nM | 50 to 500 nM | 50 to 500 nM
2 | CC(C)c1cnn2c(NCc3ccccc3OC3CCCC3)nc(O[C@@H]3CCCNC3)nc12 [(VII-095), (R)-N-(2-(cyclopentyloxy)benzyl)-8-isopropyl-2-(piperidin-3-yloxy)pyrazolo[1,5-a][1,3,5]triazin-4-amine] | > 25 nM | > 2500 nM | > 2500 nM
3 | CC(C)c1cnn2c(NC(C)c3ccccc3-n3cccn3)nc(O[C@@H]3CCCNC3)nc12 (stereo partly drawn) [(VII-06), N-(1-(2-(1H-pyrazol-1-yl)phenyl)ethyl)-8-isopropyl-2-((R)-piperidin-3-yloxy)pyrazolo[1,5-a][1,3,5]triazin-4-amine] | < 5 nM | > 2500 nM | 50 to 500 nM
4 | CC(C)c1cnn2c(NCc3ccccc3-c3ccccc3)nc(O[C@@H]3CCCNC3)nc12 [(VII-07), (R)-N-([1,1′-biphenyl]-2-ylmethyl)-8-isopropyl-2-(piperidin-3-yloxy)pyrazolo[1,5-a][1,3,5]triazin-4-amine] | < 5 nM | 500 to 2500 nM | 50 to 500 nM
5 | CC(C)c1cnn2c(NCc3ccccc3Br)nc(O[C@@H]3CCCNC3)nc12 [(VII-100), (R)-N-(2-bromobenzyl)-8-isopropyl-2-(piperidin-3-yloxy)pyrazolo[1,5-a][1,3,5]triazin-4-amine] | < 5 nM | 50 to 500 nM | 50 to 500 nM
6 | CCNC(=O)Oc1ccccc1CNc1nc(O[C@@H]2CCCNC2)nc2c(C(C)C)cnn12 [(VII-146), (R)-2-(((8-isopropyl-2-(piperidin-3-yloxy)pyrazolo[1,5-a][1,3,5]triazin-4-yl)amino)methyl)phenyl ethylcarbamate] | 10 to 25 nM | > 2500 nM | > 2500 nM
7 | CC(C)c1cnn2c(NCc3ccccc3-c3ccccn3)nc(O[C@@H]3CCCNC3)nc12 [(VII-34), (R)-8-isopropyl-2-(piperidin-3-yloxy)-N-(2-(pyridin-2-yl)benzyl)pyrazolo[1,5-a][1,3,5]triazin-4-amine] | < 5 nM | 50 to 500 nM | 500 to 2500 nM
8 | CC(C)c1cnn2c(NCc3ccccc3-n3cccn3)nc(OCCN3CCNCC3)nc12 [(VII-124), N-(2-(1H-pyrazol-1-yl)benzyl)-8-isopropyl-2-(2-(piperazin-1-yl)ethoxy)pyrazolo[1,5-a][1,3,5]triazin-4-amine] | > 25 nM | > 2500 nM | > 2500 nM
9 | CNC1CCN(c2nc(NCc3ccccc3-n3cccn3)n3ncc(C(C)C)c3n2)CC1 [(VIII-25), N-(2-(1H-pyrazol-1-yl)benzyl)-8-isopropyl-2-(4-(methylamino)piperidin-1-yl)pyrazolo[1,5-a][1,3,5]triazin-4-amine] | < 5 nM | 50 to 500 nM | 500 to 2500 nM
10 | COc1ccccc1[C@H](C)Nc1nc(O[C@@H]2CCNC2)nc2c(C(C)C)cnn12 [(VII-11), 8-isopropyl-N-((S)-1-(2-methoxyphenyl)ethyl)-2-((R)-pyrrolidin-3-yloxy)pyrazolo[1,5-a][1,3,5]triazin-4-amine] | 5 to 10 nM | 500 to 2500 nM | 500 to 2500 nM
11 | CC(C)c1cnn2c(NCc3ccccc3-c3ccccc3)nc(O[C@@H]3CCNC3)nc12 [(VII-08), (R)-N-([1,1′-biphenyl]-2-ylmethyl)-8-isopropyl-2-(pyrrolidin-3-yloxy)pyrazolo[1,5-a][1,3,5]triazin-4-amine] | 5 to 10 nM | 500 to 2500 nM | 500 to 2500 nM
12 | CC(C)c1cnn2c(NCc3ccccc3N3CCCC3=O)nc(N3CCC4(CCCN4)CC3)nc12 [(VIII-38), 1-(2-(((8-isopropyl-2-(1,8-diazaspiro[4.5]decan-8-yl)pyrazolo[1,5-a][1,3,5]triazin-4-yl)amino)methyl)phenyl)pyrrolidin-2-one] | < 5 nM | > 2500 nM | > 2500 nM

Now from value to compound:

Row | IC50 [1] | IC50 [2] | IC50 [3] | Compound
13 | > 25 nM | > 2500 nM | > 2500 nM | CC(C)c1cnn2c(NCc3ccccc3-n3cccn3)nc(N3CCCC(N)C3)nc12 (stereo not drawn) [(VIII-053), N-(2-(1H-pyrazol-1-yl)benzyl)-2-(3-aminopiperidin-1-yl)-8-isopropylpyrazolo[1,5-a][1,3,5]triazin-4-amine]
14 | > 25 nM | > 2500 nM | > 2500 nM | CC(C)c1cnn2c(NCc3ccccc3-n3cccn3)nc(C(=O)N3CCNCC3)nc12 [(XII-9), (4-((2-(1H-pyrazol-1-yl)benzyl)amino)-8-isopropylpyrazolo[1,5-a][1,3,5]triazin-2-yl)(piperazin-1-yl)methanone]
15 | 10 to 25 nM | > 2500 nM | > 2500 nM | CC(C)c1cnn2c(NCc3ccccc3-n3cccn3)nc(SC3CCNCC3)nc12 [(X-9), N-(2-(1H-pyrazol-1-yl)benzyl)-8-isopropyl-2-(piperidin-4-ylthio)pyrazolo[1,5-a][1,3,5]triazin-4-amine]
16 | > 25 nM | > 2500 nM | > 2500 nM | CC(C)c1cnn2c(NCc3ccccc3-n3cccn3)nc(CNCCCN3CCOCC3)nc12 [(XXX-2), N-(2-(1H-pyrazol-1-yl)benzyl)-8-isopropyl-2-(((3-morpholinopropyl)amino)methyl)pyrazolo[1,5-a][1,3,5]triazin-4-amine]
17 | > 25 nM | > 2500 nM | > 2500 nM | CC(C)c1cnn2c(NCc3ccccc3-n3cccn3)nc(CNCCN3CCOCC3)nc12 [(XXX-5), N-(2-(1H-pyrazol-1-yl)benzyl)-8-isopropyl-2-(((2-morpholinoethyl)amino)methyl)pyrazolo[1,5-a][1,3,5]triazin-4-amine]
18 | 10 to 25 nM | > 2500 nM | > 2500 nM | CC(C)c1cnn2c(NCc3ccccc3-n3cccn3)nc(NCCOCCN)nc12 [(VIII-048), N4-(2-(1H-pyrazol-1-yl)benzyl)-N2-(2-(2-aminoethoxy)ethyl)-8-isopropylpyrazolo[1,5-a][1,3,5]triazine-2,4-diamine]
19 | 5 to 10 nM | 500 to 2500 nM | > 2500 nM | CC(C)c1cnn2c(NCc3ccccc3-n3cccn3)nc(NCCN)nc12 [(VIII-051), N4-(2-(1H-pyrazol-1-yl)benzyl)-N2-(2-aminoethyl)-8-isopropylpyrazolo[1,5-a][1,3,5]triazine-2,4-diamine]
20 | > 25 nM | > 2500 nM | > 2500 nM | CC(C)c1cnn2c(NCc3ccccc3-n3cccn3)nc(NCCCN)nc12 [(VIII-039), N4-(2-(1H-pyrazol-1-yl)benzyl)-N2-(3-aminopropyl)-8-isopropylpyrazolo[1,5-a][1,3,5]triazine-2,4-diamine]
21 | > 25 nM | > 2500 nM | > 2500 nM | CC(C)c1cnn2c(NCc3ccccc3-n3cccn3)nc(CNCCN3CCCC3)nc12 [(XXX-4), N-(2-(1H-pyrazol-1-yl)benzyl)-8-isopropyl-2-(((2-(pyrrolidin-1-yl)ethyl)amino)methyl)pyrazolo[1,5-a][1,3,5]triazin-4-amine]
22 | < 5 nM | 50 to 500 nM | 50 to 500 nM | CC(C)c1cnn2c(NCc3ccccc3-c3cccs3)nc([S+]([O-])C3CCNCC3)nc12 (stereo not drawn) [(X-2), 8-isopropyl-2-(piperidin-4-ylsulfinyl)-N-(2-(thiophen-2-yl)benzyl)pyrazolo[1,5-a][1,3,5]triazin-4-amine]
23 | > 25 nM | > 2500 nM | > 2500 nM | CC(C)c1cnn2c(NCc3ccccc3-n3cccn3)nc(NCCN3CCOCC3)nc12 [(VIII-046), N4-(2-(1H-pyrazol-1-yl)benzyl)-8-isopropyl-N2-(2-morpholinoethyl)pyrazolo[1,5-a][1,3,5]triazine-2,4-diamine]
24 | < 5 nM | 50 to 500 nM | 500 to 2500 nM | CC(C)c1cnn2c(NCc3ccccc3-n3cccn3)nc([S+]([O-])C3CCNCC3)nc12 (stereo not drawn) [(X-1), N-(2-(1H-pyrazol-1-yl)benzyl)-8-isopropyl-2-(piperidin-4-ylsulfinyl)pyrazolo[1,5-a][1,3,5]triazin-4-amine]

Source: US9567345B2, “Pharmaceutically active pyrazolo-triazine derivatives” (LEAD DISCOVERY CENTER GMBH, priority 2012, dated 2017)
